One series relates to lymphocyte. Description: Single and multiple ascending dose studies in healthy subjects. Format: in vivo.
Series [1] concerns experimental autoimmune encephalomyelitis (EAE). The following applies: up to day 25, when dosing was discontinued; cited from earlier work.
For series [2], the system named is collagen induced arthritis (CIA). The following applies: cited from earlier work.
The next series deals with chronic plaque psoriasis. The following applies: cited from earlier work.

`O=C(O)C[C@H]1CCc2c1[nH]c1ccc(OCc3ccc(C4CCCC4)c(C(F)(F)F)c3)cc21` [Compound 1, (R)-2-(7-(4-cyclopentyl-3-(trifluoromethyl)benzyloxy)-1,2,3,4-tetrahydrocyclopenta[b]indol-3-yl)acetic acid]: the “lymphocyte lowering in healthy subjects” value in the series on lymphocyte is “demonstrated the lymphocyte lowering capabilities”. Besides, the “EAE disease onset and severity, prophylactic administration” value in series [1] was “prevented the onset and severity of disease relative to vehicle”. In series [2] (prophylactic daily oral dose, day 17, similar to fingolimod or methotrexate), the “ankle diameters in CIA” value is on record as “significant reduction in ankle diameters”. Further, the “histological parameters in knees and ankles of CIA rats” value in series [2] (rat, in vivo) was “Improvement in histological parameters”.

For `CCC/N=C1\S/C(=C\c2ccc(OC[C@H](O)CO)c(Cl)c2)C(=O)N1c1ccccc1C` [ponesimod], the “severity of chronic plaque psoriasis” value with chronic plaque psoriasis (chronic oral administration, phase 2) is “reduce the severity of chronic plaque psoriasis”. In the series with chronic plaque psoriasis (phase 2 psoriasis study), the associated adverse events entry was “dyspnea, elevated liver enzymes, bradycardia, headache and dizziness”.

The values are drawn from patent US12097182B2, “Compounds and methods for treatment of inflammatory bowel disease with extra-intestinal manifestations” (Arena Pharmaceuticals, Inc., priority 2017, dated 2024).
